Laboratory results: patent publication US20250282799A1, “SUBSTITUTED PYRIDO[4,3-d]PYRIMIDINES AS KRAS MODULATORS” (Alterome Therapeutics, Inc., priority 2023, published 2025)

What was measured:
[1] = test system: KRAS G12V dependent lung adenocarcinoma cell line, NCI-H441; assay: Cellular pERK (Thr202/Tyr204) FRET/HTRF assay; assay type: cell-based; settings: Homo sapiens
Summary of the method: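 NCI-H441, overnight plating → cpd 1 hr, 37 °C/5% CO2; DMSO neg ctrl. Lyse (phosphatase inhibitors), add donor/acceptor Abs, RT incubation, HTRF read. IC50 by curve fit.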

KRAS (G12V)/CRAF = KRAS (G12V)/CRAF (Homo sapiens (Human), UniProt P01116, G12V); assay: TR-FRET biochemical KRAS:CRAF protein:protein interaction assay, KRAS (G12V); assay type: binding; settings: GMPPNP loaded Biotin-KRAS (G12V), FLAG CRAF RBD; read-out: TR-Fret_PPI KRAS (G12V)/CRAF IC50
KRAS (G12V)/CRAF, sequence (P01116-2 other isoform, or with tags, fused parts or gaps G12V): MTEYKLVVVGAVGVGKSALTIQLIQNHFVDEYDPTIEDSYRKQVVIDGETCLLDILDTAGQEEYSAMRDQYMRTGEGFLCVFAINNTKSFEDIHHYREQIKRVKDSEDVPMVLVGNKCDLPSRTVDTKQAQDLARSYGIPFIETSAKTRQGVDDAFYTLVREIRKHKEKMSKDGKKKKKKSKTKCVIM
Method: (§1) The effect of test compounds on KRAS and CRAF protein: protein interaction (PPI) was measured by time resolved fluorescence resonance energy transfer (TR-FRET) Ras binding domain (RBD) assay, which uses a signal generated through fluorescent resonance energy transfer between a donor and an acceptor molecule when in close proximity to each other. Interference from buffer, media, etc. is reduced by dual-wavelength detection; the energy pulse from the excitation source is followed by a time delay, which allows interfering short-lived fluorescence to decay (Degorce et al. 2009).
(§2) The KRAS: CRAF PPI assay can be utilized to identify KRAS ‘ON’ state inhibitors, as the KRAS protein is loaded with GMPPNP (a non-hydrolyzable GTP analog), which represents the active KRAS ‘ON’ state. FLAG-tagged CRAF RBD binding to the GMPPNP loaded biotin-tagged KRAS will result in a fluorescence energy transfer from the donor (Tb-anti-FLAG, emission 620 nm) to the acceptor (SA-XL665, emission 665 nm). Disruption of KRAS and CRAF binding will reduce the TR-FRET signal.
(§3) Test compound was dissolved in DMSO to create a 1 mM stock solution. A 45 μL volume of stock solution was transferred to a 384well polypropylene plate. A 3fold, 10point dilution was performed by transferring 15 μL of test compound solution into 30 μL of DMSO.
(§4) Assay buffer A was prepared with […] Hepes, pH7.3, 0.002% Tween 20, 0.1% BSA, […] NaCl, 5 mM MgCl2, and 10 uM GMP-PNP. 4× KRAS Solution was prepared with 80 nM of Biotin-KRAS (G12D/V), GMPPNP loaded or Biotin-KRAS (WT), GMPPNP loaded protein in assay buffer A. 4× Raf RBD Solution was prepared with 400 nM FLAG CRAF RBD in assay buffer A. 2× Detection Mixture was prepared with 2 nM Tb-anti-FLAG antibody and 10 nM and 10 nM SA-XL665 in assay buffer A.
(§5) A volume of 100 nL of 100× test compound working solution or DMSO vehicle control solution was dispensed to each well (duplicate for each concentration) of a 384-well ProxiPlate Plus assay plate. A volume of 2.5 μL of 4× KRAS Solution was added to each well of the assay plate for a final concentration of 20 nM Biotin-KRAS (G12D/V),GMPPNP loaded or 20 nM Biotin-KRAS (WT), GMPPNP. For low control, add 2.5 μL of assay buffer (no KRAS protein). Pre-incubate assay plate for 30 minutes at room temperature. Following pre-incubation of test compound or DMSO with Biotin-KRAS (G12D/V),GMPPNP loaded or Biotin-KRAS (WT),GMPPNP, a volume of 2.5 μL of 4× FLAG cRAF RBD Solution was added to each well of the assay plate for a final concentration of 100 nM FLAG CRAF RBD. The assay plate was subjected to centrifuge at 1000 rpm for 1 minute and pre-incubate assay plate for 150 minutes at room temperature. Following the pre-incubation with FLAG cRAF RBD, a volume of 5 μl of 2× Detection Mixture was added to each well of the assay plate for a final concentration of 1 nM Tb-anti-FLAG and 5 nM SA-XL665. The assay plate was centrifuged at 1000 rpm for 1 minute and incubated for 90 minutes at room temperature. TR-FRET signal was measured on a BioTek Synergy Neo2 microplate reader (excitation at 340 nm, emission at 665 nn and 620 nm).
(§6) TR-FRET ratios were calculated by dividing the acceptor emission value (665 nm) by the donor emission value (620 nm) for each sample.
(§7) Percent inhibition was calculated by multiplying the normalized TR-FRET ratio by 100, where TR-FRET ratio^HIGH was the TR-FRET ratio obtained from wells with 1% DMSO and complete reaction mixture, TR-FRET ratio^LOW was the ratio obtained from wells with 1% DMSO and reaction mixture without KRAS protein and TR-FRET ratio^SAMPLE was the TR-FRET ratio from wells with test compound and complete reaction mixture. The IC50 values were calculated from normalized TR-FRET ratios with the Levenberg-Marquardt 4 parameter fitting procedure.
(§8) This assay quantifies the interaction of a KRAS mutant protein (e.g., G12V) with the CRAF Ras-binding domain (RBD). […]

KRAS (G12D)/CRAF = KRAS (G12D)/CRAF (Homo sapiens (Human), UniProt P01116, G12D); assay: TR-FRET biochemical KRAS:CRAF protein:protein interaction assay, KRAS (G12D); assay type: binding; settings: GMPPNP loaded Biotin-KRAS (G12D), FLAG CRAF RBD; read-out: TR-Fret_PPI KRAS (G12D)/CRAF IC50
KRAS (G12D)/CRAF, sequence (P01116-2 other isoform, or with tags, fused parts or gaps G12D): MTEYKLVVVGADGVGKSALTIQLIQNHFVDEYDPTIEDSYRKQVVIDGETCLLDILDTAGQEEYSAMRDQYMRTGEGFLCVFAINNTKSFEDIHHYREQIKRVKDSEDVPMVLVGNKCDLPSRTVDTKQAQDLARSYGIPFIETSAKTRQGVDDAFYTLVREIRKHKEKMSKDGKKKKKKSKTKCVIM
Method: as §1, §2, §3, §4, §5, §6, §7, §8

[2] = NCI-H441, cellular pERK (Thr202/Tyr204) HTRF, NCI-H441 cells
[3] = NCI-H441, pERK HTRF, NCI-H441 cells (KRAS G12V)

SMILES	IC50 [1, 2] [nM]	IC50 (KRAS (G12V)/CRAF) [nM]	IC50 (KRAS (G12D)/CRAF) [nM]	IC50 [1, 3] [nM]
[2H]C([2H])(Oc1nc(N2CCCO[C@@H]3[C@@H](Cl)[C@@H]32)c2cnc(-c3cc(N)cc4ccc(F)c(C#C)c34)c(F)c2n1)[C@@]12CCCN1C[C@H](F)C2 [Example 317, 4-(4-((1S,7R,8S)-8-chloro-2-oxa-6-azabicyclo[5.1.0]octan-6-yl)-8-fluoro-2-(((2R,7aS)-2-fluorotetrahydro-1H-pyrrolizin-7a(5H)-yl)methoxy-d2)pyrido[4,3-d]pyrimidin-7-yl)-5-ethynyl-6-fluoronaphthalen-2-amine]	50 to 500	3000	3000	–
[2H]C([2H])(Oc1nc(N2CCOC[C@@H]3[C@@H](F)[C@@H]32)c2cnc(-c3cc(N)cc4ccc(F)c(C#C)c34)c(F)c2n1)[C@@]12CCCN1C[C@H](F)C2 [Example 221, 5-ethynyl-6-fluoro-4-(8-fluoro-4-((1R,7R,8R)-8-fluoro-5-oxa-2-azabicyclo[5.1.0]octan-2-yl)-2-(((2R,7aS)-2-fluorotetrahydro-1H-pyrrolizin-7a(5H)-yl)methoxy-d2)pyrido[4,3-d]pyrimidin-7-yl)naphthalen-2-amine]	500 to 10000	> 3000	> 3000	–
[2H]C([2H])(Oc1nc(N2CCOC[C@H]3[C@H](Cl)[C@H]32)c2cnc(-c3cc(N)cc4ccc(F)c(C#C)c34)c(F)c2n1)[C@@]12CCCN1C[C@H](F)C2 [Example 248, 4-(4-((1S,7S,8S)-8-Chloro-5-oxa-2-azabicyclo[5.1.0]octan-2-yl)-8-fluoro-2-(((2R,7aS)-2-fluorotetrahydro-1H-pyrrolizin-7a(5H)-yl)methoxy-d2)pyrido[4,3-d]pyrimidin-7-yl)-5-ethynyl-6-fluoronaphthalen-2-amine]	< 50	52.6	8.25	–
[2H]C([2H])(Oc1nc(N2CCOC[C@@H]3[C@H](F)[C@@H]32)c2cnc(-c3cc(N)cc4ccc(F)c(C#C)c34)c(F)c2n1)[C@@]12CCCN1C[C@H](F)C2 [Example 224, 5-ethynyl-6-fluoro-4-(8-fluoro-4-((1R,7R,8S)-8-fluoro-5-oxa-2-azabicyclo[5.1.0]octan-2-yl)-2-(((2R,7aS)-2-fluorotetrahydro-1H-pyrrolizin-7a(5H)-yl)methoxy-d2)pyrido[4,3-d]pyrimidin-7-yl)naphthalen-2-amine]	500 to 10000	> 3000	> 3000	–
[2H]C([2H])(Oc1nc(N2CC=CC[C@@H]3[C@@H](F)[C@@H]32)c2cnc(-c3cc(N)cc4cc(F)c(F)c(C#C)c34)c(F)c2n1)[C@@]12CCCN1C[C@H](F)C2 [Example 138, 5-ethynyl-6,7-difluoro-4-(8-fluoro-4-((1R,7S,8R)-8-fluoro-2-azabicyclo[5.1.0]oct-4-en-2-yl)-2-(((2R,7aS)-2-fluorotetrahydro-1H-pyrrolizin-7a(5H)-yl)methoxy-d2)pyrido[4,3-d]pyrimidin-7-yl)naphthalen-2-amine]	500 to 10000	≥ 10000	≥ 10000	–
C#Cc1c(F)ccc2cc(N)cc(-c3ncc4c(N5CCCC[C@H]6C[C@H]65)nc(OC[C@@]56CCCN5C[C@H](F)C6)nc4c3F)c12 [Example 5, 4-(4-((1R,7S)-2-azabicyclo[5.1.0]octan-2-yl)-8-fluoro-2-(((2R,7aS)-2-fluorotetrahydro-1H-pyrrolizin-7a(5H)-yl)methoxy)pyrido[4,3-d]pyrimidin-7-yl)-5-ethynyl-6-fluoronaphthalen-2-amine]	–	234	24.2	< 50
[2H]C([2H])(Oc1nc(N2CCOC[C@H]3[C@H](F)[C@H]32)c2c(OC)nc(-c3cc(N)cc4ccc(F)c(C#C)c34)c(F)c2n1)[C@@]12CCCN1C[C@H](F)C2 [Example 222, 5-Ethynyl-6-fluoro-4-(8-fluoro-4-((1S,7S,8S)-8-fluoro-5-oxa-2-azabicyclo[5.1.0]octan-2-yl)-2-(((2R,7aS)-2-fluorotetrahydro-1H-pyrrolizin-7a(5H)-yl)methoxy-d2)-5-methoxypyrido[4,3-d]pyrimidin-7-yl)naphthalen-2-amine]	< 50	53.7	11.7	–
[2H]C([2H])(Oc1nc(N2CCCC[C@H]3[C@@H](F)[C@H]32)c2cnc(-c3cc(N)cc4cc(F)c(F)c(C#C)c34)c(F)c2n1)[C@@]12CCCN1C[C@H](F)C2 [Example 13, 5-Ethynyl-6,7-difluoro-4-(8-fluoro-4-((1S,7R,8R)-8-fluoro-2-azabicyclo[5.1.0]octan-2-yl)-2-(((2R,7aS)-2-fluorotetrahydro-1H-pyrrolizin-7a(5H)-yl)methoxy-d2)pyrido[4,3-d]pyrimidin-7-yl)naphthalen-2-amine]	–	2830	430	50 to 500
[2H]C([2H])(Oc1nc(N2CCOC[C@H]3[C@H](Cl)[C@H]32)c2cnc(-c3cc(N)cc4ccc(F)c(C#C)c34)c(F)c2n1)[C@@]12CCCN1[C@H](C)[C@H](F)C2 [Example 340, 4-(4-((1S,7S,8S)-8-Chloro-5-oxa-2-azabicyclo[5.1.0]octan-2-yl)-8-fluoro-2-(((2R,3R,7aS)-2-fluoro-3-methyltetrahydro-1H-pyrrolizin-7a(5H)-yl)methoxy-d2)pyrido[4,3-d]pyrimidin-7-yl)-5-ethynyl-6-fluoronaphthalen-2-amine]	< 50	50.1	7.14	–
[2H]C([2H])(Oc1nc(N2CCOC[C@H]3[C@@H](Cl)[C@H]32)c2cnc(-c3cc(N)cc4ccc(F)c(C#C)c34)c(F)c2n1)[C@@]12CCCN1C[C@H](F)C2 [Example 247, 4-(4-((1S,7S,8R)-8-chloro-5-oxa-2-azabicyclo[5.1.0]octan-2-yl)-8-fluoro-2-(((2R,7aS)-2-fluorotetrahydro-1H-pyrrolizin-7a(5H)-yl)methoxy-d2)pyrido[4,3-d]pyrimidin-7-yl)-5-ethynyl-6-fluoronaphthalen-2-amine]	50 to 500	3000	1390	–
[2H]C([2H])(Oc1nc(N2CCCC[C@@H]3[C@@H](Cl)[C@@H]32)c2cnc(-c3cc(N)cc4ccc(F)c(C#C)c34)c(F)c2n1)[C@@]12CCCN1C[C@H](F)C2 [Example 341, 4-(4-((1R,7S,8R)-8-chloro-2-azabicyclo[5.1.0]octan-2-yl)-8-fluoro-2-(((2R,7aS)-2-fluorotetrahydro-1H-pyrrolizin-7a(5H)-yl)methoxy-d2)pyrido[4,3-d]pyrimidin-7-yl)-5-ethynyl-6-fluoronaphthalen-2-amine]	500 to 10000	≥ 10000	1790	–
